Data from EPA's ToxValDB 9.5 (doi:10.2903/j.efsa.2016.4493).

Key:
Apis mellifera = details: acute, mortality
Bibionidae = details: chronic/long-term; duration: 28 days; other
Folsomia candida = details: chronic/long-term; duration: 4 weeks; reproduction
Tagia sp. = details: mortality
Mus musculus = details: acute; oral; mortality
Oryctolagus sp. = details: developmental; development

O=S(=O)(O)O.Oc1cccc2cccnc12.Oc1cccc2cccnc12 [8-Hydroxyquinoline sulfate]
LD50 (Apis mellifera; dermal): > 100 µg/piece | LD50 (Apis mellifera; oral, unspecified): > 68.6 µg/piece | NOEC (Bibionidae): 167 mg/L | NOEC (Folsomia candida): 52.4 mg/kg | LC50 (Oncorhynchus mykiss; acute, duration: 96 hours, mortality): 2.68 µg/mL | NOEC (Oncorhynchus mykiss; chronic/long-term, duration: 28 days, development): 10.5 µg/L | LC50 (Tagia sp.; acute, duration: 14 days): > 409 mg/kg | NOEC (Tagia sp.; chronic/long-term): 417 mg/kg

Oc1cccc2cccnc12 [8-Hydroxyquinoline]
LD50 (Coturnix japonica; acute, oral, diet, mortality): > 1070 mg/kg-day | LC50 (Coturnix japonica; acute, oral, mortality): 311 mg/kg-day | NOAEL (Coturnix japonica; chronic): 2.78 mg/kg-day | LD50 (Mus musculus): 177 mg/kg-day | NOAEL (Oryctolagus sp.): 5 mg/kg-day | NOAEL (Rattus norvegicus; chronic, duration: 2 years, body weight): 73 mg/kg-day | NOAEL (Rattus norvegicus; subchronic, duration: 90 days, oral, hematological): 97.7 mg/kg-day
